Measured values: patent US11439641B2, “Pyrimidine JAK inhibitors for the treatment of skin diseases” (THERAVANCE BIOPHARMA R&D IP, LLC, priority 2019, dated 2022)
Converted amounts (≈) assume the structure as drawn.

Experiments:
JAK1 = JAK1 (Homo sapiens (Human), UniProt P23458); assay: Biochemical JAK and Tyk2 Kinase Assays (LanthaScreen), JAK1; conditions: 25 μM ATP (Km), pIC50 converted to pKi by Cheng-Prusoff
JAK3 = JAK3 (Homo sapiens (Human), UniProt P52333); assay: Biochemical JAK and Tyk2 Kinase Assays (LanthaScreen), JAK3; conditions: 1.6 μM ATP (Km), pIC50 converted to pKi by Cheng-Prusoff; for Ki: read-out: JAK 3 (pKi) (converted)
Chain of JAK3 (P52333 whole entry): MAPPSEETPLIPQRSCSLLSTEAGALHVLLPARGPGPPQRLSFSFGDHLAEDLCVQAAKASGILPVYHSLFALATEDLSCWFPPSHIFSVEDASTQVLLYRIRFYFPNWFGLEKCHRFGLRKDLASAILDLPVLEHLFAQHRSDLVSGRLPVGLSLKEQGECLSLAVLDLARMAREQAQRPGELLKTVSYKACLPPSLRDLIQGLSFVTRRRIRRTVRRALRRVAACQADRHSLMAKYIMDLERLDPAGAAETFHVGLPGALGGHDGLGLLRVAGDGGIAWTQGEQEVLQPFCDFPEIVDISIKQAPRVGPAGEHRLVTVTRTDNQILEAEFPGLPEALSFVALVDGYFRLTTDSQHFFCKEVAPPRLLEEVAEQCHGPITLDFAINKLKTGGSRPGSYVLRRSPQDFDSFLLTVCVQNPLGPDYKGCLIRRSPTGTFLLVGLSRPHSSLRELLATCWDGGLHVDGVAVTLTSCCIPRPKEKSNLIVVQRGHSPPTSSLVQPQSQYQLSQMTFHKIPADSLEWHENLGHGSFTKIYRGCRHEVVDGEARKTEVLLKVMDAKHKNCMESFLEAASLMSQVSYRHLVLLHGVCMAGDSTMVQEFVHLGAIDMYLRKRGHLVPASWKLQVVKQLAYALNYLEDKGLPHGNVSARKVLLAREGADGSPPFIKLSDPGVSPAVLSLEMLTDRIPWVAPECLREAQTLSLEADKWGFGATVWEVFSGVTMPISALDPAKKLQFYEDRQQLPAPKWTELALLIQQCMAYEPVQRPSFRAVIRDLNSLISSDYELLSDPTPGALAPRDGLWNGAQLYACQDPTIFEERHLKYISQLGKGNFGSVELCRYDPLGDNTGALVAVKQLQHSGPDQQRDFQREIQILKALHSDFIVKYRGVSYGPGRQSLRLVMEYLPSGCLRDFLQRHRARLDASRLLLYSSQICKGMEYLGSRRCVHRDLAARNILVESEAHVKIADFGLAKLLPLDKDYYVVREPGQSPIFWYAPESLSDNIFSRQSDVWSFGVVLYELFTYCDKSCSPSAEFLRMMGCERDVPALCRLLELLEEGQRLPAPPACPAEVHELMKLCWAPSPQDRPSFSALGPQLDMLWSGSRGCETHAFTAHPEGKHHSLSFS

[1] = tested on: IL-2 stimulated pSTAT5 in Tall-1 T cells; assay: Inhibition of IL-2 Stimulated pSTAT5 in Tall-1 T Cells; type: cell-based; conditions: Tall-1 human T cell line, IL-2 300 ng/mL, AlphaLisa; for IC50: read-out: Tall-1 IL2 pSTAT5 (pIC50) (converted)
Outline: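 Cells preincubated with compound 1 hour at 37° C, then stimulated with IL-2 (final 300 ng/mL) for 30 minutes. After lysis, pSTAT5 (Tyr694/699) read by AlphaLISA luminescence. IC50 from inhibition curves, reported as pIC50 (mean±SD).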

Caco-2 cell monolayer = assay: Caco-2 Permeation Assay; type: in vitro ADME; conditions: Papp, 5 μM compound; for Cacoverap Kp 10^−6 cm/sec: A→B in the presence of 25 μM verapamil (P-gp inhibitor); for Caco Kp 10^−6 cm/sec: apical to basal (A→B)
Description: Assay 3: Caco-2 Permeation Assay
The Caco 2 permeability assay was used as a surrogate for assessment of skin permeability. This assay measures the in vitro permeability across a monolayer of Caco-2 cells, which morphologically and functionally resemble the enterocytes of the small intestine.
CacoReady 24-well transwell plates were obtained from ADMEcell (Alameda, Calif.). The compounds were evaluated at a concentration of 5 μM from 10 mM DMSO stock solutions in duplicate (n=2). Transport in the apical to basal (A→B) direction was determined in Caco 2 cell monolayers. From these values the apparent permeability (Papp) was calculated. To inform on the potential of the compound to be a P-gp substrate, the transport of the compound across the Caco-2 cell monolayer was also determined in the presence of 25 μM of the known P-gp inhibitor verapamil (Yusa and Tsuruo et al., Cancer Research, vol. 49, no. 18, 1989, pp. 5002-06).
Caco-2 culture media consisted of standard filtered DMEM, FCS 10%, L-Glutamine 1%, and PenStrep 1%. The experiment was conducted at 37° C. and in a CO2 (5%) incubator. The basal assay plate was prepared by adding 750 pt of transport buffer to A→B wells. A CacoReady™ plate was prepared by removing the Caco-2 media from the apical wells and replacing with fresh transport media (200 pt repeated for a total of 3 washes). Blank media (200 μL) was then replaced with diluted compound. To begin the incubation, the basal plate was removed from the incubator and the apical section was added on top of it. Samples were collected from the apical and basal compartments for time zero (t0). Samples were collected again after 120 minutes (t120) from the apical and basal compartments. All samples were diluted and prepared for bioanalysis by LC-MS/MS. The permeability coefficients (Papp, mean A to B) and (Papp, mean A to B+Verapamil) in cm/sec were calculated as dQ (flux)/(dt×Area×concentration).
In this assay, a compound with a Papp value of more than about 12×10−6 cm/sec is considered to have high permeability.

Aqueous Solubility Assay = conditions: PBS buffer pH 7.4; maximum upper limit 1,000 μM
Description: Assay 5: Aqueous Solubility Assay
The purpose of this assay was to quantify the solubility of test compounds in pH 4 and pH 7.4 PBS buffers. The assay required 40 μL of 10 mM DMSO test compound solution per desired buffer in addition to 20 μL required to make a test standard. For example, to test a compound in both buffers, 100 μL (2*40 μL+20 μL) of 10 mM DMSO compound stock solution was required.
The standard was created by diluting 20 μL of 10 mM DMSO compound stock solution into 180 μL of methanol and was shaken for five minutes to ensure solution uniformity. […] This 1,000 μM solution was run on an Agilent 1260 LC-MS system by injecting 2 μL in order to obtain the peak area. For the test solutions, 40 μL of 10 mM DMSO compound stock solution, per PBS buffer condition, were dried down into a powder overnight. Once in powder form, 400 μL of the desired PBS buffer was added to the powder and allowed to shake vigorously for four hours. The maximum theoretical concentration for this sample solution was 1,000 μM. After four hours of shaking, the samples were centrifuged for 10 minutes at 3,000 RPM before injecting 2 μL on the same Agilent 1260 LC-MS system to obtain the peak area.
In Table 6 below, A represents a value above 500, B represents a value between 250 and 500, C represents a value between 50 and 250, D represents a value between 10 and 50, and E represents a value below 10.

[2] = Solubility Assay in Organic Excipients; conditions: maximum upper limit 20,000 μM; for Solubility in MCT (mg/mL): medium chain triglycerides (MCT)
Description: (§5) Assay 6: Solubility Assay in Organic Excipients
(§6) The purpose of this assay was to quantify the solubility of test compounds in different organic excipients such as diisopropyl adipate, medium chain triglycerides (MCT), propylene glycol, and polyethylene glycol. The assay required 80 μL of 100 mM DMSO test compound solution per desired excipient in addition to 40 μL required to make a test standard.
(§7) The standard was created by diluting 40 μL of 100 mM DMSO compound stock solution into 160 μL of methanol and was shaken for five minutes to ensure solution uniformity. […] This 20,000 μM solution was run on an Agilent 1260 LC-MS system by injecting 0.2 μL in order to obtain the peak area. For the test solutions, 80 μL of 100 mM DMSO compound stock solution, per excipient, were dried down into a powder overnight. Once in powder form, 400 μL of the desired excipient was added to the powder and allowed to shake vigorously for four hours. The maximum theoretical concentration for this sample solution was 20,000 μM. After four hours of shaking, the samples were centrifuged for 10 minutes at 3,000 RPM before injecting 0.2 μL on the same Agilent 1260 LC-MS system to obtain the peak area.

JAK2 = JAK2 (Homo sapiens (Human), UniProt O60674); assay: Biochemical JAK and Tyk2 Kinase Assays (LanthaScreen), JAK2; conditions: 3 μM ATP (Km); pIC50 converted to pKi by Cheng-Prusoff
Chain of JAK2 (O60674 whole entry): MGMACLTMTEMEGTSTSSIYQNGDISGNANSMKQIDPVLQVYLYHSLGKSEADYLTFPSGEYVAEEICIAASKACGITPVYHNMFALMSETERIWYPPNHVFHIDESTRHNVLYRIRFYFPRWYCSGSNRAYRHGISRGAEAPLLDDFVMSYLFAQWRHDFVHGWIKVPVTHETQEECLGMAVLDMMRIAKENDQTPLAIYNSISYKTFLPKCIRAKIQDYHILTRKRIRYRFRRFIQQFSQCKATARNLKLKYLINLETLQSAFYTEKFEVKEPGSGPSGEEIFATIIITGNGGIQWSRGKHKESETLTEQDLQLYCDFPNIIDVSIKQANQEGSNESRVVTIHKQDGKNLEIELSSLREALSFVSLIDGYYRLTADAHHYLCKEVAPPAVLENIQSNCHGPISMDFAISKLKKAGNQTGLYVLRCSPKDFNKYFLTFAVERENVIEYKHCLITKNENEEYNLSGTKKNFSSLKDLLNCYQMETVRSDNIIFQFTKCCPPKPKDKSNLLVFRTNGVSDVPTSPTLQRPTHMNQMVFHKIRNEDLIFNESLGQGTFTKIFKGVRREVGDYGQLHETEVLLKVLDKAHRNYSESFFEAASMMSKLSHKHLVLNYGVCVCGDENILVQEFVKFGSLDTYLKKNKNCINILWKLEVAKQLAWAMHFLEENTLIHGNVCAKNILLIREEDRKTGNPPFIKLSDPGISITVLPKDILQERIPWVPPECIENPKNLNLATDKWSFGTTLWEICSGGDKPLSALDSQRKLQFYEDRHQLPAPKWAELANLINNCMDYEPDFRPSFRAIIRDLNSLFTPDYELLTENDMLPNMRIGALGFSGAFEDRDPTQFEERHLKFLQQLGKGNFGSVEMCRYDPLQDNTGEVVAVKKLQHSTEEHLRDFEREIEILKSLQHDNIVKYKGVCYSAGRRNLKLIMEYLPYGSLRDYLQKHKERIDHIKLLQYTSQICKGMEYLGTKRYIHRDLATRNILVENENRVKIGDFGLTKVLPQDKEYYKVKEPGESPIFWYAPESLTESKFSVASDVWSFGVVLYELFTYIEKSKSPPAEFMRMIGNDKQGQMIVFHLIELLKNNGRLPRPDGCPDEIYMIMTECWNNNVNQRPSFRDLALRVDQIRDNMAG
Description: (§1) Assay 1: Biochemical JAK and Tyk2 Kinase Assays
(§2) A panel of four LanthaScreen JAK biochemical assays (JAK1, 2, 3 and Tyk2) were carried in a common kinase reaction buffer (50 mM HEPES, pH 7.5, 0.01% Brij-35, 10 mM MgCl2, and 1 mM EGTA). Recombinant GST-tagged JAK enzymes and a GFP-tagged STAT1 peptide substrate were obtained from Life Technologies.
(§3) Serially or discretely diluted compounds were pre-incubated with each of the four JAK enzymes and the substrate in white 384-well microplates (Corning) at ambient temperature for 1 h. ATP was subsequently added to initiate the kinase reactions in 10 μL total volume, with 1% DMSO. The final enzyme concentrations for JAK1, 2, 3 and Tyk2 are 4.2 nM, 0.1 nM, 1 nM, and 0.25 nM respectively; the corresponding Km ATP concentrations used are 25 μM, 3 μM, 1.6 μM, and 10 μM; while the substrate concentration is 200 nM for all four assays. Kinase reactions were allowed to proceed for 1 hour at ambient temperature before a 10 μL preparation of EDTA (10 mM final concentration) and Tb-anti-pSTAT1 (pTyr701) antibody (Life Technologies, 2 nM final concentration) in TR-FRET dilution buffer (Life Technologies) was added. The plates were allowed to incubate at ambient temperature for 1 h before being read on the EnVision reader (Perkin Elmer). Emission ratio signals (520 nm/495 nm) were recorded and utilized to calculate the percent inhibition values based on DMSO and background controls.
(§4) For dose-response analysis, percent inhibition data were plotted vs. compound concentrations, and IC50 values were determined from a 4-parameter robust fit model with the Prism software (GraphPad Software). Results were expressed as pIC50 (negative logarithm of IC50) and subsequently converted to pKi (negative logarithm of dissociation constant, Ki) using the Cheng-Prusoff equation.

Tyk2 = Tyk2 (Homo sapiens (Human), UniProt P29597); assay: Biochemical JAK and Tyk2 Kinase Assays (LanthaScreen), Tyk2; conditions: 10 μM ATP (Km), pIC50 converted to pKi by Cheng-Prusoff; for Ki: read-out: Tyk 2 (pKi) (converted)
Chain of Tyk2 (P29597 whole entry): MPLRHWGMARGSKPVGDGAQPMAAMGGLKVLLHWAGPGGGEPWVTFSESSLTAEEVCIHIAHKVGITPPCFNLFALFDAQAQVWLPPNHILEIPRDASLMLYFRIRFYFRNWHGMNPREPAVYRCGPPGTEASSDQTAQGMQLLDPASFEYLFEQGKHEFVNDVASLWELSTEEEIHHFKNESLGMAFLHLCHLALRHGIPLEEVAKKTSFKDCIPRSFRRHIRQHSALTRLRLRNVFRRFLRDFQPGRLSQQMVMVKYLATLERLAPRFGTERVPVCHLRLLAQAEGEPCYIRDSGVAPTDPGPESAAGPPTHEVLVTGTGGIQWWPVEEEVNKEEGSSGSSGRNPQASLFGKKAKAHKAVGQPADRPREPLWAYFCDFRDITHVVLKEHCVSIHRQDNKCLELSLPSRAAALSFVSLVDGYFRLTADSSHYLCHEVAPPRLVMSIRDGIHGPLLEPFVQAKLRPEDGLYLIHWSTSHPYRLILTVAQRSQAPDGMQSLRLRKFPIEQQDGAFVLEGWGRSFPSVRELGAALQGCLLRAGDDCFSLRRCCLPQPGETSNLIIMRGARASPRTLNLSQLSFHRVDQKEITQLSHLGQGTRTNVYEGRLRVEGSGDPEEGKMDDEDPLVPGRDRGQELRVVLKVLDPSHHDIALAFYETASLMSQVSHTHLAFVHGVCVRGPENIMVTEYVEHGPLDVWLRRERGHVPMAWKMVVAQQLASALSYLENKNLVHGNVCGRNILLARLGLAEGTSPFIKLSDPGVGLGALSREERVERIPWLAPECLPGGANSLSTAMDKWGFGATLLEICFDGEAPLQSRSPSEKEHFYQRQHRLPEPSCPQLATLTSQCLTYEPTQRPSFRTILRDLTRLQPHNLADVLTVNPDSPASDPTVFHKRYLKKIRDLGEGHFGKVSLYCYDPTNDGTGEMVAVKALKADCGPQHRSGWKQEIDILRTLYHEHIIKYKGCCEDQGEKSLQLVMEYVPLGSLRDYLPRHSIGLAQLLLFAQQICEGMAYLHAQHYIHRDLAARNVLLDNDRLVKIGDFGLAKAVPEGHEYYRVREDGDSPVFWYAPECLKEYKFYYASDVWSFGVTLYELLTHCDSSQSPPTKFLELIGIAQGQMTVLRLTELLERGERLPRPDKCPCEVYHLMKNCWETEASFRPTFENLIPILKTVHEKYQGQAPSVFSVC
Description: as §1, §2, §3, §4

physchem = conditions: thermodynamic from solid
Description: as §5, §6, §7

[3] = oil or lipid, Solubility in MCT (mg/mL)
[4] = organic solvent or mixture, Solubility in Diisopropyl adipate (mg/mL)
[5] = organic solvent or mixture, Solubility in PEG400 (mg/mL)
[6] = organic solvent or mixture, Solubility in Propylene glycol (mg/mL)

Chain of JAK1 (P23458 whole entry): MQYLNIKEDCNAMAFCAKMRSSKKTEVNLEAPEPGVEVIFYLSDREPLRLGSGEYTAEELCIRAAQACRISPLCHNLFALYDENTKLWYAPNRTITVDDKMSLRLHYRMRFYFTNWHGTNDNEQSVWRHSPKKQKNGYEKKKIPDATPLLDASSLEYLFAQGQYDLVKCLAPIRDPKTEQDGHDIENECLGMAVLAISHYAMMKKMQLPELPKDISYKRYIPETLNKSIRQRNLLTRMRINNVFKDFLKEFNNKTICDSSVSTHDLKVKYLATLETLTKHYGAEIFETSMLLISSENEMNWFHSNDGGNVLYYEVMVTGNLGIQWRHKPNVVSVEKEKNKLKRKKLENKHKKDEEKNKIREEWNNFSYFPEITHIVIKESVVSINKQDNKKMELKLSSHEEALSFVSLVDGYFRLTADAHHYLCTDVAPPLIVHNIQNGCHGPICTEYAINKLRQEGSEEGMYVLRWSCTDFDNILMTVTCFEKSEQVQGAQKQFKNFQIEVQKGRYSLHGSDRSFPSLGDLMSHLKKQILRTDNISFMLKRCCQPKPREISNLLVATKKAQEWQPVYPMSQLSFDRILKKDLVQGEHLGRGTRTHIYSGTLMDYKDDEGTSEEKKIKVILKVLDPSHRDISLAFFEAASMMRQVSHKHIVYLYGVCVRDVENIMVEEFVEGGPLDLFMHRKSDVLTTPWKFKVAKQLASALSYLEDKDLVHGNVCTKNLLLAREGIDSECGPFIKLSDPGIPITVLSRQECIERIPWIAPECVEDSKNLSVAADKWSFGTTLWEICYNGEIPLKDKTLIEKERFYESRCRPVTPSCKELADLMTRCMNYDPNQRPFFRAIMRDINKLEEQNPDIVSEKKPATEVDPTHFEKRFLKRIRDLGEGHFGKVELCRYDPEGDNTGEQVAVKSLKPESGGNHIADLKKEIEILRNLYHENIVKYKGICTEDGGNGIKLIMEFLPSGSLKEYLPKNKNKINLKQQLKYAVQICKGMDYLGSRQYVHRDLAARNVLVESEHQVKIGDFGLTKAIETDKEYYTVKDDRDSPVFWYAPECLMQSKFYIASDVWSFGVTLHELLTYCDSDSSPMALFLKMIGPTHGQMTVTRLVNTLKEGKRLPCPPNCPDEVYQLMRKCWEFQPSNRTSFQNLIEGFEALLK

SMILES	JAK 1 (pKi) (JAK1)	JAK 3 (pKi) (JAK3)	Tall-1 IL2 pSTAT5 (pIC50) [1]	Cacoverap Kp 10^−6 cm/sec (Caco-2 cell monolayer)	Caco Kp 10^−6 cm/sec (Caco-2 cell monolayer)	Solubility at PH 7.4 (μmol) (Aqueous Solubility Assay)	Solubility in PEG400 (mg/mL) [2]	Solubility in Diisopropyl adipate (mg/mL) [2]	Solubility in MCT (mg/mL) [2]	Solubility in Propylene glycol (mg/mL) [2]	JAK 2 (pKi) (JAK2)	Ki (JAK3) [nM]	Ki (Tyk2) [nM]	solubility at 4 h (physchem; [3]) [µg/mL]	solubility at 4 h (physchem; [4]) [µg/mL]	solubility at 4 h (physchem; [5]) [µg/mL]	solubility at 4 h (physchem; [6]) [µg/mL]	Tyk 2 (pKi) (Tyk2)	IC50 [1] [nM]	Ki (JAK1; read-out: JAK 1 (pKi) (converted)) [nM]
Cc1cc(Nc2cc(C3CCCO3)nc(N(C)[C@@H]3C[C@H]4CCC[C@@H](C3)N4C(=O)CC3CC3)n2)n[nH]1 (stereo partly drawn) [Compound 12, 2-cyclopropyl-1-((1R,3s,5S)-3-(methyl(4-((5-methyl-1H-pyrazol-3-yl)amino)-6-(tetrahydrofuran-2-yl)pyrimidin-2-yl)amino)-9-azabicyclo[3.3.1]nonan-9-yl)ethan-1-one]	B (B represents a pKi value between 9 and 10 (Ki between 1 nM and 0.1 nM))	C (C represents a pKi value between 8 and 9 (Ki between 10 nM and 1 nM))	A (A represents a pIC50 value ≥8.0)	C (C represents a value between 12×10^−6 and 20×10^−6 cm/sec)	B (B represents a value between 15×10^−6 and 30×10^−6 cm/sec)	C (C represents a value between 50 and 250)	B (B represents a value between 5 and 10)	B (B represents a value between 5 and 10)	C (C represents a value below 5)	B (B represents a value between 5 and 10)	–	–	–	–	–	–	–	–	–	–
CCNC(=O)CN1[C@@H]2CCC[C@H]1C[C@H](N(C)c1nc(Nc3cc(C)[nH]n3)cc(O[C@H]3CCOC3)n1)C2 [Compound 32]	A (A represents a pKi value ≥10 (Ki≤0.1 nM))	–	–	–	–	–	–	–	–	–	A (A represents a pKi value ≥10 (Ki≤0.1 nM))	0.1 to 1	0.1 to 1	< 5000	> 10000	> 10000	> 10000	–	–	–
Cc1cc(Nc2cc(OC3COC3)nc(N(C)[C@@H]3C[C@H]4CCC[C@@H](C3)N4C(=O)CC3CC3)n2)n[nH]1 [Compound 35]	A (A represents a pKi value ≥10 (Ki≤0.1 nM))	–	–	–	–	–	–	–	–	–	A (A represents a pKi value ≥10 (Ki≤0.1 nM))	0.1 to 1	–	< 5000	5000 to 10000 (≈ 10.4 to 20.8 mM)	5000 to 10000 (≈ 10.4 to 20.8 mM)	5000 to 10000 (≈ 10.4 to 20.8 mM)	A (A represents a pKi value ≥10 (Ki≤0.1 nM))	≤ 10	–
CCS(=O)(=O)N1[C@@H]2CCC[C@H]1C[C@H](N(C)c1nc(Nc3cc(C)[nH]n3)cc(OCC3COC3)n1)C2 [Compound 39, N^2-((1R,3s,5S)-9-(ethylsulfonyl)-9-azabicyclo[3.3.1]nonan-3-yl)-N2-methyl-N4-(5-methyl-1H-pyrazol-3-yl)-6-(oxetan-3-ylmethoxy)pyrimidine-2,4-diamine]	A (A represents a pKi value ≥10 (Ki≤0.1 nM))	A (A represents a pKi value ≥10 (Ki≤0.1 nM))	–	B (B represents a value between 20×10^−6 and 35×10^−6 cm/sec)	B (B represents a value between 15×10^−6 and 30×10^−6 cm/sec)	E (E represents a value below 10)	A (A represents a value above 10)	B (B represents a value between 5 and 10)	C (C represents a value below 5)	B (B represents a value between 5 and 10)	–	–	–	–	–	–	–	–	–	–
COCCC(=O)N1[C@@H]2CCC[C@H]1C[C@H](N(C)c1nc(Nc3cc(C)[nH]n3)cc(O[C@@H]3CCOC3)n1)C2 [Compound 25]	–	–	–	–	–	–	–	–	–	–	A (A represents a pKi value ≥10 (Ki≤0.1 nM))	0.1 to 1	0.1 to 1	< 5000	> 10000	> 10000	> 10000	–	≤ 10	0.1 to 1
CCS(=O)(=O)N1[C@@H]2CCC[C@H]1C[C@H](N(C)c1nc(Nc3cc(C)[nH]n3)c(F)c(C3CCOCC3)n1)C2 [Compound 45, N2-((1R,3s,5S)-9-(ethylsulfonyl)-9-azabicyclo[3.3.1]nonan-3-yl)-5-fluoro-N2-methyl-N4-(5-methyl-1H-pyrazol-3-yl)-6-(tetrahydro-2H-pyran-4-yl)pyrimidine-2,4-diamine]	B (B represents a pKi value between 9 and 10 (Ki between 1 nM and 0.1 nM))	C (C represents a pKi value between 8 and 9 (Ki between 10 nM and 1 nM))	A (A represents a pIC50 value ≥8.0)	B (B represents a value between 20×10^−6 and 35×10^−6 cm/sec)	B (B represents a value between 15×10^−6 and 30×10^−6 cm/sec)	E (E represents a value below 10)	A (A represents a value above 10)	A (A represents a value above 10)	C (C represents a value below 5)	A (A represents a value above 10)	–	–	–	–	–	–	–	–	–	–
CCNC(=O)CN1[C@@H]2CCC[C@H]1C[C@H](N(C)c1nc(Nc3cc(C)[nH]n3)cc(C3CCCO3)n1)C2 (stereo partly drawn) [Compound 15, N-ethyl-2-((1R,3s,5S)-3-(methyl(4-((5-methyl-1H-pyrazol-3-yl)amino)-6-(tetrahydrofuran-2-yl)pyrimidin-2-yl)amino)-9-azabicyclo[3.3.1]nonan-9-yl)acetamide]	A (A represents a pKi value ≥10 (Ki≤0.1 nM))	B (B represents a pKi value between 9 and 10 (Ki between 1 nM and 0.1 nM))	A (A represents a pIC50 value ≥8.0)	B (B represents a value between 20×10^−6 and 35×10^−6 cm/sec)	B (B represents a value between 15×10^−6 and 30×10^−6 cm/sec)	A (A represents a value above 500)	B (B represents a value between 5 and 10)	A (A represents a value above 10)	C (C represents a value below 5)	A (A represents a value above 10)	–	–	–	–	–	–	–	–	–	–
